{"source": "paper PMC12040169", "about": "(PLOS Biology, 2025)", "data": [{"assay": "in vitro", "conditions": "human, hela cells, % viability", "units": {"viability at 28.5 h, 10 µM": "%"}, "values": [{"smiles": "O=C(O)COc1ccccc1/C=N\\N1CCN(c2ccccn2)CC1", "note": "[CBK262916]", "viability at 28.5 h, 10 µM": 95.9}, {"smiles": "CC(=O)C1=C(O)C(=O)N(CC(=O)O)C1c1cccc([N+](=O)[O-])c1", "note": "(stereo not drawn) [CBK262921]", "viability at 28.5 h, 10 µM": 97.4}, {"smiles": "Nc1ncnc2c1ncn2C1OC(C(=O)O)C(O)C1O", "note": "(stereo not drawn) [CBK262922]", "viability at 28.5 h, 10 µM": 99.9}, {"smiles": "c1ccc2sc(SCc3nc4c5c6c(sc5ncn4n3)CCCC6)nc2c1", "note": "[CBK262923]", "viability at 28.5 h, 10 µM": 92.5}, {"smiles": "O=C(O)CCCN1C(=O)C(O)=C(C(=O)c2ccccc2)C1c1ccccc1", "note": "(stereo not drawn) [CBK262924]", "viability at 28.5 h, 10 µM": 93.3}, {"smiles": "COc1cc(/C=N/NC(=O)CCc2c(C)n[nH]c2C)ccc1O", "note": "[CBK262925]", "viability at 28.5 h, 10 µM": 90.1}, {"smiles": "Cn1c(=N)n(CC(=O)O)c2ccccc21", "note": "[CBK262926B]", "viability at 28.5 h, 10 µM": 90.4}, {"smiles": "Cc1n[nH]c(C)c1CCC(=O)N/N=C/c1ccc(O)cc1", "note": "[CBK262927]", "viability at 28.5 h, 10 µM": 109}, {"smiles": "O=C(O)CC1OC(=O)c2cc3c(cc21)C(=O)OC3CC(=O)O", "note": "(stereo not drawn) [CBK262928]", "viability at 28.5 h, 10 µM": 100}, {"smiles": "COc1ccc(C(O)Cn2c(=N)n(CCN3CCCCC3)c3ccccc32)cc1", "note": "(stereo not drawn) [CBK262930C]", "viability at 28.5 h, 10 µM": 98.8}, {"smiles": "CCOc1ccc(C(N)CC(=O)O)cc1", "note": "(stereo not drawn) [CBK262933C]", "viability at 28.5 h, 10 µM": 82.4}, {"smiles": "C/C(=N\\NC(=O)CCc1c(C)n[nH]c1C)c1ccc(N)cc1", "note": "[CBK262935]", "viability at 28.5 h, 10 µM": 97.7}, {"smiles": "Nc1ccc(-c2ncccc2O)cc1", "note": "[CBK262937C]", "viability at 28.5 h, 10 µM": 106}, {"smiles": "N#Cc1c(NC(=O)COc2ccc(Cl)cc2)oc(-c2ccccc2)c1-c1ccccc1", "note": "[CBK262938]", "viability at 28.5 h, 10 µM": 91.5}, {"smiles": "CCNC(=S)N(CCc1ccccc1)C1CC(=O)N(c2ccc(F)cc2)C1=O", "note": "(stereo not drawn) [CBK262941]", "viability at 28.5 h, 10 µM": 87.6}, {"smiles": "Cn1c(=O)c2c(nc(SCC(=O)O)n2C)n(C)c1=O", "note": "[CBK262942]", "viability at 28.5 h, 10 µM": 88.3}, {"smiles": "O=C(COc1ccc(Cl)cc1Br)NNC(=O)c1ccccc1O", "note": "[CBK262943]", "viability at 28.5 h, 10 µM": 97.8}, {"smiles": "O=C(Nc1ccc2oc(-c3cccnc3)nc2c1)c1ccc(-c2cccc([N+](=O)[O-])c2)o1", "note": "[CBK262945]", "viability at 28.5 h, 10 µM": 106}, {"smiles": "Cc1ccc2nc(C)c(CCC(=O)O)c(O)c2c1", "note": "[CBK262946]", "viability at 28.5 h, 10 µM": 91.8}, {"smiles": "Cc1ccc(NC(=O)c2ccc(-c3cccc([N+](=O)[O-])c3)o2)cc1-c1nc2ncccc2o1", "note": "[CBK262947]", "viability at 28.5 h, 10 µM": 89.7}, {"smiles": "Cc1cc(C(=O)Nc2cccc(-c3nc4cc(Cl)ccc4o3)c2C)ccc1[N+](=O)[O-]", "note": "[CBK262949]", "viability at 28.5 h, 10 µM": 91.8}, {"smiles": "CC1(C)CC(NC(=O)c2cccc([N+](=O)[O-])c2)CC(C)(C)N1", "note": "[CBK262952C]", "viability at 28.5 h, 10 µM": 99.8}, {"smiles": "CCOc1cc(/C=C2\\SC(=N)NC2=O)cc(Cl)c1O", "note": "[CBK262955]", "viability at 28.5 h, 10 µM": 84.4}, {"smiles": "COc1ccc(/C=C(\\C#N)c2nc3ccccc3n2Cc2c(C)ccc3ccccc23)cc1", "note": "[CBK262960]", "viability at 28.5 h, 10 µM": 119}, {"smiles": "NC(=O)c1ccc(NC(=O)COc2ccccc2Cl)cc1", "note": "[CBK262961]", "viability at 28.5 h, 10 µM": 109}, {"smiles": "CC(=O)Nc1ccc(S(=O)(=O)Oc2ccc(C3C4=C(CC(C)(C)CC4=O)N=C4c5ccccc5C(=O)C43)cc2)cc1", "note": "(stereo not drawn) [CBK262964]", "viability at 28.5 h, 10 µM": 93.7}, {"smiles": "N#C/C(=C\\c1ccc(-c2ccc3c(c2)C(=O)NC3=O)o1)c1nc2ccccc2[nH]1", "note": "[CBK262965]", "viability at 28.5 h, 10 µM": 94.4}, {"smiles": "CC1CC(N(C(=O)c2cccc(Br)c2)c2ccccc2)c2ccccc2N1", "note": "(stereo not drawn) [CBK262966]", "viability at 28.5 h, 10 µM": 96.7}, {"smiles": "c1ccc2c(OCc3nc4ccccc4[nH]3)cccc2c1", "note": "[CBK262969]", "viability at 28.5 h, 10 µM": 106}, {"smiles": "COC(=O)Nc1ccc2c(c1)N(C(=O)CCN(C)C)c1ccccc1CC2", "note": "[CBK262972C]", "viability at 28.5 h, 10 µM": 87.2}, {"smiles": "O=c1c2c3c(sc2n2c(S)nnc2n1Cc1ccccc1)CN(Cc1ccccc1)CC3", "note": "[CBK262973]", "viability at 28.5 h, 10 µM": 95}, {"smiles": "CCn1c(C(O)c2ccc(OC)c(OC)c2)nc2ccccc21", "note": "(stereo not drawn) [CBK262974]", "viability at 28.5 h, 10 µM": 90.1}, {"smiles": "O=C(Cc1ccccc1)NN1C(=O)/C(=C/c2ccccc2C(=O)O)SC1=S", "note": "[CBK262975]", "viability at 28.5 h, 10 µM": 104}, {"smiles": "COC(=O)CNC(c1ccccc1)c1cc(Br)ccc1NC(C)=O", "note": "(stereo not drawn) [CBK262976]", "viability at 28.5 h, 10 µM": 119}, {"smiles": "Cc1ccc(Cn2c(=N)n(CC(=O)c3ccc(Br)cc3)c3ccccc32)cc1", "note": "[CBK262979B]", "viability at 28.5 h, 10 µM": 94}, {"smiles": "COC(=O)CN1C(CN2CCOCC2)=Nc2ccc(Br)cc2C1c1ccccc1", "note": "(stereo not drawn) [CBK262981]", "viability at 28.5 h, 10 µM": 89.8}, {"smiles": "COc1ccc(OC)c(N/C=C(/C#N)c2nc(-c3cc4c(ccc5ccccc54)oc3=O)cs2)c1", "note": "[CBK262991]", "viability at 28.5 h, 10 µM": 109}, {"smiles": "COc1ccc(Cl)cc1NC(=O)COc1cccc2ccccc12", "note": "[CBK262995]", "viability at 28.5 h, 10 µM": 94.9}, {"smiles": "CC(C)(C)c1cc(C(c2ccccc2O)N2CCOCC2)cc(C(C)(C)C)c1O", "note": "(stereo not drawn) [CBK262998]", "viability at 28.5 h, 10 µM": 86.4}, {"smiles": "COc1ccc(/C=N/NC(=O)c2ccc(O)cc2O)cc1COc1cc(C)c(Cl)c(C)c1", "note": "[CBK263000]", "viability at 28.5 h, 10 µM": 90.3}, {"smiles": "N/C(=N\\OC(=O)COc1cccc2ccccc12)c1ccc(Cl)cc1", "note": "[CBK263004]", "viability at 28.5 h, 10 µM": 88.4}, {"smiles": "O=C(COc1cccc2ccccc12)NNC(=O)C1CCCO1", "note": "(stereo not drawn) [CBK263007]", "viability at 28.5 h, 10 µM": 89.7}]}]}
